From patent publication US20050170015A1 (priority 2000, published 2005) come the findings set out here.

Where two headings read alike, the source gives them in different places.

Test [1] has as its system RIF-1 murine fibrosarcoma. As to the kind of experiment: RIF-1 tumor growth delay, thiocolchicine alone and with cisplatin, camptothecin or amonafide (Example 6). It counts as in vivo, C3H mice. Conditions: Ex# E047. The method, then:
Cisplatin for Injection, USP, was obtained as the commercial product from Bristol Laboratories (Platinol®, Lot No. K1F26A). Camptothecin was obtained from Boehinger-Ingelheim Lot 142088. Amonafide dihydrochloride was prepared in house, in a solution of 20 mg/ml. 0.9% Sodium Chloride for Injection, USP (saline) was manufactured by Abbott Laboratories (Lot No. 55-199-DK). Sterile Water for Injection, USP (WFI) was manufactured by Lyphomed, Inc. (Lot No. 390849). DMSO was obtained from Sigma (St. Louis, Mo.). DMF (dimethylformamide) was obtained from Sigma (St. Louis, Mo.). PEG400 was obtained from Sigma (St. Louis, Mo.).
For preparation of cisplatin formulation, the contents of a 10-mg vial of lyophilized CDDP (Cisplatin for Injection) was resuspended with 10 mL WFI to produce a 1 mg/mL CDDP suspension.
Camptothecin was prepared in a solution of DMSO at 0.75 mg/ml.
This was further diluted using saline to […].
Amonafide was diluted to 15 mg/ml with saline.
Food and water were available ad libitum.
Tumors: The RIF-1 murine fibrosarcoma cell line was maintained in in vitro culture (Wayrnouth medium supplemented with 20% fetal bovine serum) at 37° C. in a humidified 5% CO2 incubator. Log-phase RIF-1 cells were trypsinized and harvested from cell culture flasks to yield a concentration of 4×10^6 cells/mL, then injected intradermally in a volume of 50 μL (equivalent to 2×10^5 cells per injection) into both flanks of each mouse. Nine days later, when tumors reached approximately 100 mm^3 in size, the animals were randomized to different treatment groups.
Evaluation of Tumor Growth Delay: Tumors were measured three times weekly for up to 22 days with Vernier calipers. Tumor volume (cubic millimeters, mm^3) was calculated according to the formula: [formula] in which D1-3 are perpendicular diameters measured in millimeters (mm). Tumor volume quadrupling time (TVQT), defined as the time required for a tumor to grow to four times (4×) its initial volume (at the time of treatment), was used as a study endpoint.
The TVQT was determined for each treatment group and expressed in days as the mean±standard error (SE).

Test [2] relates to murine fibrosarcomas (RIF-1 cells). As to the kind of experiment: RIF-1 tumor growth delay, single or multiple colchicine doses in mixed sequence with camptothecin (Example 2B). It counts as in vivo, C3H mice. The method, then: (§1) For the examples below, transplantable experimental murine fibrosarcomas (2×10^5 RIF-1 cells) were grown intradermally in the flank s of 3 month old female C3H mice (Charles River, Holister, Calif.). When the tumors reached a volume of approximately 100 mm^3, the mice were randomly assigned to each experimental group (4 mice per group).
(§2) Colchicine was obtained from Sigma-Aldrich (St. Louis, Mo.) and was made to the appropriate concentration in water for injection. After the treatments described below, the growth of the tumors was monitored three times per week by caliper measurements of three perpendicular diameters of the tumor. The tumor volume was calculated from the formula: V=π/6×D1×D2×D3, where D1-3 are the diameter measurements in mm.
(§3) In each Example, the tumors were followed until they reached a size of four times their day zero treatment volume (TVQT), or up to 30 days after treatment, whichever came first. The data is expressed as the “tumor volume quadrupling time” (TVQT) mean and as the “delay.” Mean TVQT is the mean days required for individual tumors to grow to four times the tumor volume at the initial treatment day. The “delay” is the median of days required for a tumor to grow to four times the mean size of the treated group, minus the median of days required to grow to four times the mean size of the control group. The data is also expressed as the ratio of the tumor volume quadrupling time of the treated tumor over the untreated control group (TVQT/CTVQT). Increasing values of this ratio indicate increased antitumor response.
In FIG. 5, the arrow indicates a one hour interval separating treatment with each agent. The experimental compositions were prepared as described above. In two treatment groups, colchicine was administered orally in three doses (“colch×3” or “colchicine×3”). When three dosages of colchicine were administered, the first was given one hour after the administration of camptothecin (day 0), the second on day 1 and the third on day 2.

Test [3] has the same test system. It counts as in vivo, C3H mice. On the procedure:
as §1, §2, §3
Paclitaxel was obtained prediluted at 1 mg/ml in a cremaphor/ethanol solution. Colchicine was given at a dose of 2 mg/kg and paclitaxel was given, for each injection, at a dose of 10 mg/kg. For group 4, a total of three paclitaxel injections were given, one each on days 0, 3 and 5. The compositions were injected systemically (i.e., intraperitoneally, i.p.), in a volume of 100 μl.

For test [4] the test system is unchanged. In kind it is in vivo, C3H mice. On the procedure: as §1, §2, §3
Cisplatin (David Bull Laboratories—Mulgrave, Australia, lot. 5201844x) was made to the appropriate concentration in water for injection. Colchicine was given orally in a volume of 100 μl. Cisplatin was injected systemically (i.e., intraperitoneally, i.p.), in a volume of 100 μl. For the treatment of group 3, colchicine was given orally immediately prior to the intraperitoneal injection of cisplatin. The experimental compositions were prepared as described in Table 7.
This is another data set of the same source.

For test [5] the test system is unchanged. As to the kind of experiment: RIF-1 tumor growth delay, single-dose colchicine with camptothecin (Example 2A). In kind it is in vivo, C3H mice. The method, then:
as §1, §2, §3
A. Effect of Single Doses of Colchicine Administered Concurrently with Camptothecin Camptothecin (Boehringer Ingelheim-Lot 71012) was made to the appropriate concentration in DMSO. Colchicine was given orally in a volume of 100 μl. Camptothecin was injected systemically (i.e., intraperitoneally, i.p.), in a volume of 100 μl. For the treatment of group 3, colchicine was given orally immediately prior to the intraperitoneal injection of camptothecin. The experimental compositions were prepared as described in Table 4.

For test [6] the test system is unchanged. In kind it is in vivo, C3H mice. The method, then: as §1, §2, §3
Etoposide (Sigma-Aldrich, lot. 46H078) was made to the appropriate concentration in DMSO. Etoposide and colchicine were injected systemically (i.e., intraperitoneally, i.p.), in a volume of 100 μl. The experimental compositions were prepared as described in Table 2.
The source holds these as a separate data set.

Test [7] shares this test system.
Description: In each Example, the tumors were followed until they reached a size of four times their day zero treatment volume (TVQT), or up to 30 days after treatment, whichever came first. The data is expressed as the “tumor volume quadrupling time” (TVQT) mean and as the “delay.” Mean TVQT is the mean days required for individual tumors to grow to four times the tumor volume at the initial treatment day. […] The data is also expressed as the ratio of the tumor volume quadrupling time of the treated tumor over the untreated control group (TVQT/CTVQT). Increasing values of this ratio indicate increased antitumor response.
Where [8] appears, read: colchicine 10 mg/kg oral × 3 (days 0, 1, 2).
Where [9] appears, read: colchicine 10 mg/kg oral, single dose.
Where [10] appears, read: colchicine 2 mg/kg i.p. (Table 11: 1 mg/kg).
Setting [11] is: paclitaxel 10 mg/kg i.p., 3× (days 0, 3, 5).
The mark [12] stands for this setting: paclitaxel 10 mg/kg i.p., given once.
Setting [13] is: vinblastine 1 mg/kg i.p., 3× (days 0, 3, 6).
Where [14] appears, read: vinblastine 1 mg/kg i.p., 4× (days 0, 3, 6, 8).

In the case of `CN(C)CCN1C(=O)c2cccc3cc(N)cc(c23)C1=O` [Amonafide], in test [1] (amonafide IP 60 mg/kg), the “Days to 4× (ave ± SE)” value is 9.8 ± 0.6 days, the “Days to 4× Median” value amounted to 10.1 days, the “Delay” value is 2.55 days and the T/C turned out to be 1.3.
With `COc1cc2c(c(OC)c1OC)-c1ccc(OC)c(=O)cc1[C@@H](NC(C)=O)CC2` [Colchicine, (S)-N-(5,6,7,9-tetrahydro-1,2,3,10-tetramethoxy-9-oxobenzo[a]heptalen-7-yl)acetamide], in test [2] (setting [8]), the “Days to 4× (Ave ± SE)” value is 7.2 ± 0.3 days, the Delay is -0.04 days, the Median amounted to 7.3 days and the T/C amounted to 1.0. In addition, the “Tumor growth delay, three doses of colchicine compared to a single dose” value in test [2] (colchicine 10 mg/kg oral × 3 versus single dose) was “did not delay tumor growth significantly”. Besides, in test [2] (setting [9]), the “Days to 4× (Ave ± SE)” value was 7.7 ± 0.4 days, the Delay was 0.32 days, the Median is on record as 7.6 days and the T/C is 1.0. Further, in test [3] (setting [10]), the “Delay” value came out at 3.34 days, the “Mean TVQT ± S.E.” value is 11.3 ± 0.6 days, the “Median (TVQT)” value was 10.8 days and the TVQT/CTVQT came to 1.5. The “Effect of colchicine on the antiproliferative activity of cisplatin” value in test [4] (both compounds (group 4) versus cisplatin alone or colchicine alone) is listed as “more than additive effect”. In test [4] (colchicine 10 mg/kg oral), the “Delay” value was 0.02 days, the “Median (TGD)” value came out at 6.3 days, the “TGD ± S.E.” value was 6.4 ± 0.3 days and the TGD/CTGD stood at 1.0. For the same compound, the “Effect of colchicine on the antiproliferative activity of camptothecin” value in test [5] (both compounds (group 4) versus camptothecin alone or colchicine alone) was “more than additive effect”. Besides, in test [5] (colchicine 10 mg/kg oral), the “Delay” value is 0.02 days, the “Mean TVQT ± S.E.” value was 6.4 ± 0.3 days, the “Median (TVQT)” value turned out to be 6.3 days and the TVQT/CTVQT was 1.0. In addition, the “Effect of colchicine on the antiproliferative activity of etoposide” value in test [6] (both compounds (group 4) versus etoposide alone or colchicine alone) is reported as “more than additive effect”. In test [6] (colchicine 2 mg/kg i.p.), the “Delay” value was determined as 1.65 days, the “Mean TVQT ± S.E.” value is 9.5 ± 0.2 days, the “Median (TVQT)” value was found to be 9.3 days and the TVQT/CTVQT is on record as 1.2. Further, in test [7] (colchicine 1 mg/kg i.p.), the “Delay” value amounted to 1.15 days, the “Mean TVQT ± S.E.” value turned out to be 7.2 ± 0.5 days, the “Median (TVQT)” value stood at 7.2 days and the TVQT/CTVQT worked out at 1.1.
Consider `CC(=O)O[C@H]1C(=O)[C@@]2(C)[C@H]([C@H](OC(=O)c3ccccc3)[C@]3(O)C[C@H](OC(=O)[C@H](O)[C@@H](NC(=O)c4ccccc4)c4ccccc4)C(C)=C1C3(C)C)[C@]1(OC(C)=O)CO[C@@H]1C[C@@H]2O` [Paclitaxel], for which, in test [3] (RIF-1 model, paclitaxel 10 mg/kg i.p.), the “Effectiveness of paclitaxel given 3 times versus once” value is reported as “slightly more effective”. In test [3] (setting [11]), the “Delay” value amounted to 1.59 days, the “Mean TVQT ± S.E.” value is 10.8 ± 1.9 days, the “Median (TVQT)” value is given as 9.0 days and the TVQT/CTVQT was 1.4. For the same compound, in test [3] (setting [12]), the “Delay” value was 0.67 days, the “Mean TVQT ± S.E.” value is on record as 9.1 ± 0.7 days, the “Median (TVQT)” value came to 8.1 days and the TVQT/CTVQT was found to be 1.2.
On to `CC[C@]1(O)C[C@@H]2CN(CCc3c([nH]c4ccccc34)[C@@](C(=O)OC)(c3cc4c(cc3OC)N(C)[C@H]3[C@@](O)(C(=O)OC)[C@H](OC(C)=O)[C@]5(CC)C=CCN6CC[C@]43[C@@H]65)C2)C1` [Vinblastine], for which the “Tumor growth delay curve when vinblastine was given after colchicine” value in test [7] (group 7: vinblastine days 0, 3, colchicine day 6, vinblastine day 8) is recorded as “renewed sensitivity to vinblastine”. Besides, in test [7] (vinblastine 1 mg/kg i.p., 1×), the “Delay” value is 0.11 days, the “Mean TVQT ± S.E.” value stood at 6.6 ± 0.4 days, the “Median (TVQT)” value turned out to be 6.2 days and the TVQT/CTVQT worked out at 1.0. Further, in test [7] (setting [13]), the “Mean TVQT ± S.E.” value came to 8.9 ± 0.9 days, the “Median (TVQT)” value was 7.8 days and the TVQT/CTVQT amounted to 1.4. Moreover, in test [7] (setting [14]), the “Mean TVQT ± S.E.” value was 8.4 ± .06 days, the “Median (TVQT)” value is given as 8.6 days and the TVQT/CTVQT was found to be 1.2.
`N.N.[Cl][Pt][Cl]` [Cisplatin, cis-diamminedichloroplatinum II]: in test [4] (cisplatin 4 mg/kg i.p.), the “Delay” value was found to be 1.45 days, the “Median (TGD)” value came to 7.7 days, the “TGD ± S.E.” value was determined as 7.4 ± 0.3 days and the TGD/CTGD is recorded as 1.2. Also, in test [1] (CDDP IP 4 mg/kg), the “Days to 4× (ave ± SE)” value came out at 9.44 ± 0.42 days, the “Days to 4× Median” value amounted to 9.22 days, the “Delay” value was 1.66 days and the T/C amounted to 1.2.
In the case of `COc1cc([C@@H]2c3cc4c(cc3[C@@H](O[C@@H]3O[C@@H]5CO[C@@H](C)O[C@H]5[C@H](O)[C@H]3O)[C@H]3COC(=O)[C@H]23)OCO4)cc(OC)c1O` [Etoposide], in test [6] (etoposide 10 mg/kg i.p.), the “Delay” value was -0.17 days, the “Mean TVQT ± S.E.” value came out at 7.7 ± 0.5 days, the “Median (TVQT)” value amounted to 7.5 days and the TVQT/CTVQT was 1.0.
As for `CC[C@@]1(O)C(=O)OCc2c1cc1n(c2=O)Cc2cc3ccccc3nc2-1` [Camptothecin, camptothecin], in test [2] (CPT 6 mg/kg IP), the “Days to 4× (Ave ± SE)” value was 12.9 ± 0.5 days, the Delay amounted to 5.45 days, the Median was 12.8 days and the T/C is recorded as 1.7. In addition, in test [1] (camptothecin IP 3 mg/kg), the “Days to 4× (ave ± SE)” value was found to be 8.26 ± 0.46 days, the “Days to 4× Median” value is 8.27 days, the “Delay” value is 0.71 days and the T/C turned out to be 1.1. For the same compound, in test [5] (camptothecin 6 mg/kg i.p.), the “Delay” value came out at 3.60 days, the “Mean TVQT ± S.E.” value was 9.4 ± 0.5 days, the “Median (TVQT)” value stood at 9.9 days and the TVQT/CTVQT is reported as 1.5.
